In ChEMBL document CHEMBL3352684, “Discovery of MK-3697: a selective orexin 2 receptor antagonist (2-SORA) for the treatment of insomnia” (Bioorg Med Chem Lett, 2014):
Substitutions are numbered along the chain they refer to. Active and inactive are the calls of the source. No cut-off for these calls is given here.

Legend:
[1] = Oral bioavailability in […] dog at 3 mg/kg; type: ADME, organism-based, Canis lupus familiaris; conditions: in vivo
[2] = Clearance in rat at 2 mg/kg, iv; type: ADME, organism-based; parameters: dose 2 mg/kg, route intravenous; conditions: in vivo
[3] = Cmax in dog at 3 mg/kg, po; type: ADME, organism-based, Canis lupus familiaris; parameters: dose 3 mg/kg, route oral; conditions: in vivo
[4] = Apparent permeability of the compound; type: physicochemical; conditions: not told
[5] = Half life in rat at 2 mg/kg, iv; type: ADME, organism-based; parameters: dose 2 mg/kg, route intravenous; conditions: in vivo
[6] = Drug uptake in dog CSF at 3 mg/kg, po; type: ADME, organism-based, Canis lupus familiaris, Cerebrospinal fluid; parameters: dose 3 mg/kg, route oral; conditions: in vivo, read-out: Drug uptake
[7] = test system: Mus musculus; assay: Increase in rapid eye movement sleep in mouse at 100 mg/kg, po after 2 hrs; type: functional, organism-based; parameters: dose 100 mg/kg
[8] = target: T1, Orexin receptor type 2 (Homo sapiens, UniProt O43614); assay: Antagonist activity at human OX2R expressed in CHO cells assessed as inhibition of Ala-6,12-orexinA-induced effect after 5 mins by FLIPR assay; type: cell-based
T1 sequence (O43614 whole entry): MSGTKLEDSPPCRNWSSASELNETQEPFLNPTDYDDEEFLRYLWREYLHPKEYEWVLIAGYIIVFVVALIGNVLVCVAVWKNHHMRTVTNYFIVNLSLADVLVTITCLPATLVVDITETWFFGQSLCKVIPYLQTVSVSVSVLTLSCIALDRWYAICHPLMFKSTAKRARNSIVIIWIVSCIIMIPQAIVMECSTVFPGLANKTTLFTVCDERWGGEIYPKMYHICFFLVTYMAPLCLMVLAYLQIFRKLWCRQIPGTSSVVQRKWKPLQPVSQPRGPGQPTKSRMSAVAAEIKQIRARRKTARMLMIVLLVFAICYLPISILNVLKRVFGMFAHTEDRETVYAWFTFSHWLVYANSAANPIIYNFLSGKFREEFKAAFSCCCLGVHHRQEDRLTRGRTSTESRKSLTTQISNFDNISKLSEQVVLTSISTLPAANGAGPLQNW

[9] = Clearance in dog at 1 mg/kg, iv; type: ADME, organism-based, Canis lupus familiaris; parameters: dose 1 mg/kg, route intravenous; conditions: in vivo
[10] = Drug uptake in Sprague-Dawley rat CSF at 15 mg/kg, po; type: ADME, organism-based, Cerebrospinal fluid; parameters: dose 15 mg/kg, route oral; conditions: in vivo, read-out: Drug uptake
[11] = Plasma protein binding in dog; type: ADME, cell-free, Canis lupus familiaris; conditions: read-out: PPB (converted)
[12] = target: T2, Orexin receptor type 2 (Canis lupus familiaris) (UniProt Q9TUP7); assay: Antagonist activity at dog OX2R by FLIPR assay
T2 sequence (whole entry): T1 sequence (O43614 whole entry) with S19P, I70V, V196M, F197L, V272A, P281Q, M286I, I308V, A334T, I417V

[13] = test system: Rattus norvegicus; assay: Reduction in active wake sleep in Sprague-Dawley rat at 15 mg/kg, po after 2 hrs; type: functional, organism-based; parameters: dose 15 mg/kg
[14] = Tmax in mouse at 100 mg/kg, po; type: ADME, organism-based; parameters: dose 100 mg/kg, route oral; conditions: in vivo
[15] = test system: Canis familiaris; assay: Increase in rapid eye movement sleep in dog at 3 mg/kg, po after 3.5 hrs; type: functional, organism-based; parameters: dose 3 mg/kg; conditions: Canis lupus familiaris
[16] = Volume of distribution at steady state in rat at 2 mg/kg, iv; type: ADME, organism-based; parameters: dose 2 mg/kg, route intravenous; conditions: in vivo, read-out: Vdss
[17] = Clearance in dog with cassette dosing; type: ADME, organism-based, Canis lupus familiaris; conditions: in vivo
[18] = target: T3, Orexin receptor type 2 (Rattus norvegicus) (UniProt P56719); assay: Antagonist activity at Sprague-Dawley rat OX2R by FLIPR assay
T3 sequence (whole entry): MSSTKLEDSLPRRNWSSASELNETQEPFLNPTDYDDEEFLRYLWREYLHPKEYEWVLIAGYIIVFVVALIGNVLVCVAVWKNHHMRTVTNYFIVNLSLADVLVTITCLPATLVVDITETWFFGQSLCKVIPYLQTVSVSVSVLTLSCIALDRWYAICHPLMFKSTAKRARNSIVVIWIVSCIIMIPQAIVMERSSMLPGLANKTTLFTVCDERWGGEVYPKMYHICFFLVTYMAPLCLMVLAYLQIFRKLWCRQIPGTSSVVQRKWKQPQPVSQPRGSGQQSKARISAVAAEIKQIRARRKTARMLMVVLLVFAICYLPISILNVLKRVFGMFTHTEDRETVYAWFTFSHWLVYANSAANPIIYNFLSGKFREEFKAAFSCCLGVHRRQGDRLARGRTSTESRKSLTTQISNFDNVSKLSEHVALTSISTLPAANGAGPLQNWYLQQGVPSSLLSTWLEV

[19] = Cmax in rat at dog at 3 mg/kg, po; type: ADME, organism-based, Canis lupus familiaris; parameters: dose 3 mg/kg, route oral; conditions: in vivo
[20] = test system: Rattus norvegicus; assay: Increase in rapid eye movement sleep in Sprague-Dawley rat at 15 mg/kg, po after 2 hrs; type: functional, organism-based; parameters: dose 15 mg/kg
[21] = Tmax in Sprague-Dawley rat at 15 mg/kg, po; type: ADME, organism-based; parameters: dose 15 mg/kg, route oral; conditions: in vivo
[22] = test system: Mus musculus; assay: Increase in slow wave sleep in OX2R-knockout mouse at 100 mg/kg, po after 2 hrs; type: functional, organism-based; parameters: dose 100 mg/kg
[23] = AUC (0 to infinity) in rat at 5 mg/kg, po; type: ADME, organism-based; parameters: time infinity, dose 5 mg/kg, route oral; conditions: plasma
[24] = Volume of distribution at steady state in dog at 1 mg/kg, iv; type: ADME, organism-based, Canis lupus familiaris; parameters: dose 1 mg/kg, route intravenous; conditions: in vivo, read-out: Vdss
[25] = Plasma protein binding in Sprague-Dawley rat; type: ADME, cell-free; conditions: read-out: PPB (converted)
[26] = test system: Mus musculus; assay: Increase in rapid eye movement sleep in OX2R-knockout mouse at 100 mg/kg, po after 2 hrs; type: functional, organism-based; parameters: dose 100 mg/kg
[27] = Tmax in rat at dog at 3 mg/kg, po; type: ADME, organism-based, Canis lupus familiaris; parameters: dose 3 mg/kg, route oral; conditions: in vivo
[28] = Oral bioavailability in rat at 5 mg/kg; type: ADME, organism-based; conditions: in vivo
[29] = species: Canis lupus familiaris; assay: Antagonist activity at dog OX1R by FLIPR assay
[30] = test system: Mus musculus; assay: Reduction in active wake sleep in OX2R-knockout mouse at 100 mg/kg, po after 2 hrs; type: functional, organism-based; parameters: dose 100 mg/kg
[31] = Drug uptake in mouse CSF at 100 mg/kg, po after 2 hrs; type: ADME, organism-based; parameters: dose 100 mg/kg, route oral; conditions: cerebrospinal fluid, read-out: Drug uptake
[32] = Cmax in mouse at 100 mg/kg, po; type: ADME, organism-based; parameters: dose 100 mg/kg, route oral; conditions: in vivo
[33] = Cmax in Sprague-Dawley rat at 15 mg/kg, po; type: ADME, organism-based; parameters: dose 15 mg/kg, route oral; conditions: in vivo

Compound `COc1ccc(CNC(=O)c2cc(-c3cncc(C)c3)ncc2-c2nccs2)nc1OC` has a bioavailability [1] of 49%, a clearance [2] of 40.7 mL/min/kg and a Cmax [3] of 2700 nM. It also gave a Papp [4] of 33 ×10⁻⁶ cm/s, a half-life [5] of 24 min and a concentration [6] of 460 nM. The Activity [7] was “Active”, the IC50 [8] was 16 nM and the clearance [9] was 7.2 mL/min/kg. It also gave a concentration [10] of 900 nM, a fraction unbound [11] of 0.169 and an INH [12] of 16 nM. For the same compound, the Activity [13] was “Active”, the Tmax [14] was 120 min and the Activity [15] was “Active”. For the same compound, the Vd [16] was 1.2 L/kg, the clearance [17] was 12 mL/min/kg and the INH [18] was 31 nM. For the same compound, the Cmax [19] was 2100 nM, the Activity [20] was “Active” and the Tmax [21] was 48 min. For the same compound, the Activity [22] was “inactive”, the AUC(0-inf) [23] was 3 µM·h and the Vd [24] was 0.7 L/kg. The fraction unbound [25] was 0.164, the Activity [26] was “inactive” and the Tmax [27] was 42 min. For the same compound, the bioavailability [28] was 64%, the INH [29] was 10 µM and the Activity [30] was “inactive”. The concentration at 2 h [31] was 4900 nM, the Cmax [32] was 55300 nM and the Cmax [33] was 5300 nM.
